Measurements: patent US20240376138A1, “Crystal Forms, Preparation Method And Application Of Aryl Phosphine Oxide Compound” (Chengdu Di'Ao Jiuhong Pharmaceutical Factory, priority 2021, published 2024)

Experiment: Stability test 2: different temperature and humidity conditions, XRPD
Assay type: physicochemical

COc1cc(N2CCC(N3CCN(C)CC3)CC2)c(C)cc1Nc1ncc(Br)c(Nc2ccc(C)cc2P(C)(C)=O)n1 [Crystal form 1, (2-((5-bromo-2-((2-methoxy-5-methyl-4-(4-(4-methylpiperazin-1-yl)piperidin-1-yl)phenyl)amino)pyrimidin-4-yl)amino)-5-methylphenyl)dimethylphosphorus oxide dihydrate]
Crystal form 1: Analysis of result of Day 4 (XRPD) (25° C.-60% RH) | Analysis of result of Day 6 (XRPD) (25° C.-60% RH) | Analysis of result of Day 11 (XRPD) (25° C.-60% RH) | Analysis of result of Day 4 (XRPD) (40° C.-75% RH) | Analysis of result of Day 6 (XRPD) (40° C.-75% RH) | Analysis of result of Day 11 (XRPD) (40° C.-75% RH) | Analysis of result of Day 4 (XRPD) (RT-12% RH) | Analysis of result of Day 6 (XRPD) (RT-12% RH) | Analysis of result of Day 11 (XRPD) (RT-12% RH) | Analysis of result of Day 4 (XRPD) (RT-58% RH) | Analysis of result of Day 6 (XRPD) (RT-58% RH) | Analysis of result of Day 11 (XRPD) (RT-58% RH) | Analysis of result of Day 4 (XRPD) (RT-97% RH) | Analysis of result of Day 6 (XRPD) (RT-97% RH) | Analysis of result of Day 11 (XRPD) (RT-97% RH)
